According to patent US9072729B2, “Method for treating fibrosis and cancer with imidazolium and imidazolinium compounds” (Agency for Science, Technology and Research, priority 2008, dated 2015):

Key:
HLE cells [1] = test: Annexin V staining and flow cytometry, HLE; assay type: cell-based, human; details: 24 hr, TRAIL 100 ng/ml
Protocol: (§1) FIG. 22. […] HLE or HepG2 cells were incubated with DBZIM of various concentrations for 6 hr, and assayed for caspase 3/7 activity and LDH releasing (expressed as % toxicity). DBZIM induced apoptosis as characterized by annexin V staining using flow cytometer in HLE (E) and HepG2 (F). Scatter plot and histogram gave the representative information on the cell population distribution while bar graphs quantified the percentage of apoptotic cells from the histogram. HLE and HepG2 cells were treated by DBZIM of various concentrations for 24 hr before harvesting for annexin V staining and flow cytometric analysis.
(§2) HLE and HepG2 cells were treated with various concentrations of DBZIM or TRAIL (100 ng/ml) for 24 hr, harvested and labeled with Annexin V-FITC (BioVision, CA, USA). The labeled cells were analysed by flow cytometry FACSCalibur ([…], NJ, USA) and CellQuest software. Cells showing green staining in the plasma membrane were considered as apoptotic cells.

AIF = AIF translocation (Western blot and HCS); assay type: cell-based, human; details: 24 hr
Protocol: FIG. 26. DBZIM induced cytoplasm-to-nucleus translocation of AIF. (A). DBZIM translocated AIF from cytoplasm to nucleus. HepG2 cells were treated by DBZIM for 24 hr. Cytoplasmic and nuclear proteins were fractionated using a kit from Pierce. 15 μg of proteins were resolved in 4-12% gradient PAGE-SDS gel. The target proteins were recognized by the antibody of AIF, and visualized by the ECL method. The membrane was stripped and re-probed for α-tubulin as the loading control for cytoplasmic fraction and Tata binding protein TBP for nuclear protein. (B). HLE cells were grown in 96-well plate and treated by DBZIM for 24 hr. The cells were then fixed and stained by antibody of AIF. The images were acquired and analyzed using ArrayScan VTI HCS reader (Thermal Scientific, PA, USA) and Target Activation BioApplication software. The arrows indicate the cytoplasmic and the nuclear location of the AIF staining in the control and the DBZIM, respectively. (C). Quantification of AIF staining in different subcellular compartments. […]
HLE cells cultured in 96-well plate were treated with DBZIM for 24 hr before staining and imaging. […] The cells were imaged and analyzed on ArrayScan VTI HCS reader (Thermal Scientific, PA, USA). Fluorescence intensity in the cytoplasmic and nuclear area was plotted for indication of cytoplasm to nucleus translocation. […]

HepG2 cells = test: Annexin V staining and flow cytometry, HepG2; assay type: cell-based, human; details: HepG2, 24 hr; TRAIL 100 ng/ml
Protocol: as §1, §2

MCF-7 = test: Proliferation assay (MTS), breast cancer cell line; assay type: cell-based; details: Homo sapiens, MCF7, 72 h; MCF-7 (breast cancer), determined at day 3
Protocol: Proliferation of Glioma cell lines: U87 MG and C6 under the treatment of DBZIM was examined using 3-(4,5-dimethylthiazol-2-yl)-5-(3-carboxymethoxyphenyl)-2-(4-sulfophenyl)-2H-tetrazolium (MTS) based proliferation assay kit (Promega, Wis., USA). MTS reagent was added to the control and treated cells (after 48 hr) directly and the absorbance signal was read at 490 nm using a Tecan Safire II plate reader.
The IC50 value (determined at day 3) was 50 μM for H1299 (lung cancer); 50 μM for MCF-7 (breast cancer), and 40 μM for AGS gastric cancer at day 3 (Table 3).

caspase-3/9 and PARP = test: Western blot of caspase-3, caspase-9 and PARP in MCF-7 and AGS; assay type: cell-based, human; details: 50 μM
Protocol: FIG. 31. DBZIM induces cleavage of caspase-3, caspase-9 and PARP as indication of apoptosis. Western blot analysis for the effect of DBZIM, on the cleavage of caspase-3, Caspase-9 and PARP A) in p53 wild type gastric cancer cell AGS and B) in p53 wild type breast cancer cell line MCF-7. Western blot analysis conducted on cells after 72 h exposure to 50 μM of DBZIM.
To determine whether cells undergo apoptosis, Western blotting was first performed for a caspase-3/9 and PARP activation with proteins from MCF-7 and AGS treated with DBZIM. […] Similarly we observed a DBZIM-induced elevation of caspase 3/7 in C6 (by 3 folds at 2.0 mM) and in U87 MG (by 17 folds at 2 mM) (FIGS. 30B and 30D).

HLE cells [2] = test: ROS determination in HLE cells (dihydroethidium); assay type: cell-based, human; details: millimolar range, 24 hr
Protocol: FIG. 27. High dose DBZIM induced ROS production in HLE cells. HLE cells were grown in 96-Well plate and treated by DBZIM for 24 hr. The cells were then fixed and stained by DHE for quantification of ROS generation. The images ware acquired and analyzed using ArrayScan VTI HCS reader (Thermal Scientific, PA, USA) and Target Activation BioApplication software.
Oxidative stress was measured using Cellomic HitKit (Thermo Scientific, IL, USA). HLE cells were treated with DBZIM for 24 hr, fixed and labeled by Dihydroethidium probe for quantitation of ROS generation and Hoechst dye for nuclear staining. The result was analyzed by Target Activation BioApplication software. The percentage of positive responding cells was plotted as the indication of ROS amount.

[3] = dosage of 30 mg/kg (Lin et al. 2004); cited from earlier work

[Br-].c1ccc(Cn2cc[n+](Cc3ccccc3)c2)cc1 [DBZIM, 1,3-bisbenzylimidazolium bromide]
apoptosis (annexin V staining) (HLE cells [1]): dose-dependently induced apoptosis
AIF translocation (AIF): induce the translocation of AIF to the nucleus
apoptosis (annexin V staining) (HepG2 cells): dose-dependently induced apoptosis
IC50 (MCF-7): 50 µM
caspase-3/9 and PARP activation (caspase-3/9 and PARP): time-dependently increased caspase-3/9 and PARP activity
ROS generation (HLE cells [2]): generated significant amount of ROS

(−)-Epigallocatechin gallate [EGCG, reference compound]
half life in rat blood [3]: ~1.2 h
